Tests used:
KDR(VEGFR2) = KDR(VEGFR2) (Homo sapiens, UniProt P35968); experiment: SelectScreen kinase activity profiling, KDR(VEGFR2); format: biochemical; set-up: % Inhibition / Mean % Inhibition: concentration or dose not given beside the values; settings: KDR(VEGFR2); for Mean % Inhibition: mean of two independent trials
Source text: (§1) To characterize the RTK inhibitory activity of the antiangiogenic SMs described herein, 36 compounds were chosen and screened using Invitrogen's SelectScreen® kinase activity profiling service (described on-line at tools.invitrogen.com/content.cfm?pageid=10413#selection). VEGFR1 and FGFR2 RTK inhibitory activities were studied. […] Overall, a small minority of the SMs tested had any substantial kinase inhibitory activity. This observation supports a mechanism of antiangiogenic action other than RTK inhibition for most of the SMs described herein.

FGFR1 = FGFR1 (Homo sapiens, UniProt P11362); experiment: SelectScreen kinase activity profiling, FGFR1; format: biochemical; set-up: concentration or dose not given beside the values; settings: for Mean % Inhibition: mean of two independent trials
Source text: as §1

in vitro = settings: pig
[1] = first of two independent trials
[2] = second of two independent trials

FGFR1, sequence (P11362 398-822 limits assumed): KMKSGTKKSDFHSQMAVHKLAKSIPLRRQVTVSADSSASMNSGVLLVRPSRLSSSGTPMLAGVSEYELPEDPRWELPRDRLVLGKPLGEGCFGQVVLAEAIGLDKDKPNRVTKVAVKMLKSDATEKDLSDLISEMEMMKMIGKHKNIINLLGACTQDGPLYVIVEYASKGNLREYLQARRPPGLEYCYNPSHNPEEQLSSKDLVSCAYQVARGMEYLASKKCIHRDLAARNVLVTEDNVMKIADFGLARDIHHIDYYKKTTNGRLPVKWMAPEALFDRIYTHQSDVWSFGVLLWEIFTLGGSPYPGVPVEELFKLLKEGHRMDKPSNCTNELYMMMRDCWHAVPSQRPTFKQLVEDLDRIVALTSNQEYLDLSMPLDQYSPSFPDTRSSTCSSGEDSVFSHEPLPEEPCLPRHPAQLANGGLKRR
KDR(VEGFR2), sequence (P35968 20-1356): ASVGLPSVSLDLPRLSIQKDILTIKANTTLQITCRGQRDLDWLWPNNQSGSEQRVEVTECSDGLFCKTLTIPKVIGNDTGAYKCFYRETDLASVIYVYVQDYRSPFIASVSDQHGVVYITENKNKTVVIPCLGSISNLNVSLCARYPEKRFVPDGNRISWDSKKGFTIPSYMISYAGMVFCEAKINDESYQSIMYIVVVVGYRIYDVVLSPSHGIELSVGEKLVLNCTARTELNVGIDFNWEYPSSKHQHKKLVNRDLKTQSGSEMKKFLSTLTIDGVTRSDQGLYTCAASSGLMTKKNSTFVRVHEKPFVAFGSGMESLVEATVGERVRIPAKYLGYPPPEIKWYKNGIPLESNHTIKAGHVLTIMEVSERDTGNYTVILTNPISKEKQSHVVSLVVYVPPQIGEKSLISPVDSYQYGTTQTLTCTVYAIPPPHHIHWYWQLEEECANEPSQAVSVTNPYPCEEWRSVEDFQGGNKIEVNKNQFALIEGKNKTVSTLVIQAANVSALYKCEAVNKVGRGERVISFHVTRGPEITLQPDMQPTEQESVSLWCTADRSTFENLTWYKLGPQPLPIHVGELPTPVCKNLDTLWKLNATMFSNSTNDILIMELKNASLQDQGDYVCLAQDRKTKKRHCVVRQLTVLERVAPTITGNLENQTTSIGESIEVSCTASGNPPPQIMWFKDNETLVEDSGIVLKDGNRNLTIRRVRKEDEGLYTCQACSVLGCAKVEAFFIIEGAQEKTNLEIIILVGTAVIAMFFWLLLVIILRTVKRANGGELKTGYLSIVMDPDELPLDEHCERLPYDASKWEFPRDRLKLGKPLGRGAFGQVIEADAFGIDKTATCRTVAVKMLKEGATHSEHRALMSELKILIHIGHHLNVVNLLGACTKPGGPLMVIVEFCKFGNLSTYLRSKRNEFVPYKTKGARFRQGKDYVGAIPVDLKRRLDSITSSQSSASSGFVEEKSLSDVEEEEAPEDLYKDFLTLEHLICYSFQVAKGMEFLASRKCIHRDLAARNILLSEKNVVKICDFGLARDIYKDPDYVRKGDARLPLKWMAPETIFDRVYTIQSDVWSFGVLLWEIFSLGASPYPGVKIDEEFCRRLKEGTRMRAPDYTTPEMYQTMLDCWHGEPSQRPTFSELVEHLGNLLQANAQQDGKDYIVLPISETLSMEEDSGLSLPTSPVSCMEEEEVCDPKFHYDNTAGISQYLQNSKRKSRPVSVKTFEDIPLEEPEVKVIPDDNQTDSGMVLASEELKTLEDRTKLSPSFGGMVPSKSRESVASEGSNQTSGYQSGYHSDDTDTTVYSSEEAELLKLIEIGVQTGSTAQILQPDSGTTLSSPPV

Row | SMILES | % Inhibition (KDR(VEGFR2); [1]) [%] | Mean % Inhibition (KDR(VEGFR2)) [%] | % Inhibition (KDR(VEGFR2); [2]) [%] | % Inhibition (FGFR1; [1]) [%] | Mean % Inhibition (FGFR1) [%] | % Inhibition (FGFR1; [2]) [%] | cytotoxicity (in vitro) [%]
1 | O=C(O)C1CCCN1Cc1ccc2c(c1)OCO2 (stereo not drawn) [compound 108895] | 5 | 6 | 6 | 4 | 4 | 4 | 
2 | COc1ccc(CC2C(=O)NC(C)C(=O)N(C)C3C(=O)N(C)C(Cc4ccc(O)c(c4)Oc4ccc(cc4)C3O)C(=O)NC(C)C(=O)NC(C)C(=O)N2C)cc1 (stereo not drawn) [compound 259968] | 8 | 8 | 9 | 5 | 3 | 2 | 
3 | NC(=O)SCC(=O)Nc1ccc2ncccc2c1 [Compound 45, S-[2-oxo-2-(quinolin-6-ylamino)ethyl] carbamothioate] |  |  |  |  |  |  | 6.61
4 | CC(C)(C)c1c2c(c(C(C)(C)C)c3c1OCN(Cc1ccccc1)C3)OCN(Cc1ccccc1)C2 [Compound 51, 3,8-dibenzyl-5,10-ditert-butyl-2,4,7,9-tetrahydro-[1,3]oxazino[6,5-g][1,3]benzoxazine] |  |  |  |  |  |  | 8.56
5 | COC(=O)c1ccc(CCc2cc(O)ccc2O)cc1 [compound 681152] | 10 | 9 | 8 | 4 | 3 | 3 | 
6 | O=C1c2ccccc2NC(c2cc(Cl)cc(Cl)c2O)N1CCc1ccccn1 (stereo not drawn) [compound 328087] | 9 | 9 | 9 | 3 | 4 | 5 | 
7 | S=C1SCN(C2CCCCCCCCCCC2)CN1C1CCCCCCCCCCC1 [compound 209910] | 9 | 10 | 10 | 2 | 4 | 5 | 
8 | CC(C)(C)c1cc(O)ccc1O [compound 4972] | 2 | 7 | 11 | 3 | −2 | −7 | 
9 | O=C(O)c1c(Br)c(Br)c(Br)c(Br)c1C1c2ccc(O)cc2Oc2cc(O)ccc21 [Compound 62, 2,3,4,5-tetrabromo-6-(3,6-dihydroxy-9H-xanthen-9-yl)benzoic acid] |  |  |  |  |  |  | 13.6
10 | CC(C)(C)c1cc(C#N)cc(Br)c1OP(=O)(Oc1c(Br)cc(C#N)cc1C(C)(C)C)c1ccccc1 [compound 203328] | 9 | 8 | 7 | 4 | 4 | 4 | 
11 | O=[N+]([O-])c1ccc(S(=O)(=O)Cc2ccccc2)c([N+](=O)[O-])c1 [compound 122657] | 14 | 14 | 14 | −3 | −3 | −3 | 
12 | CC(=N[N-]C(=S)SCc1ccccc1)c1ccccn1.[Cl][Cu+] [compound 295642] | 19 | 18 | 17 | 2 | 6 | 9 | 
13 | CS(=O)(=O)c1ccc(/C=N/NC(N)=S)cc1 [compound 27063] | 12 | 11 | 11 | −3 | −3 | −2 | 
14 | N=C1NC2=[S+][Hg]([c]3ccc(N)cc3)[n+]3cn(C4OC(CO)C(O)C4O)c(c32)N1 (stereo not drawn) [Compound 57, Mercury, (4-aminophenyl)(6-thioguanosinato-N7,S6)-] |  |  |  |  |  |  | 7.38
15 | CC1(C)C2CCC1(C)C(OC(=O)CSC#N)C2 (stereo not drawn) [compound 3535] | 10 | 8 | 5 | −1 | −2 | −3 | 
16 | CCCCC[CH2][Hg][S]c1nc(N)nc2[nH]cnc12 [compound 268879] | 40 | 39 | 38 | 3 | 1 | −2 | 
17 | CC1=C(Br)C(=O)C(C)=C(Br)C1=O.Cc1c(O)c(Br)c(C)c(O)c1Br [compound 112200] | 100 | 99 | 99 | 9 | 7 | 5 | 
18 | CC1(C)[C@@H]2CC[C@]1(C)[C@H](OC(=O)CSC#N)C2 [Compound 42, [(1S,4R,6R)-1,7,7-trimethyl-6-bicyclo[2.2.1]heptanyl]2-thiocyanatoacetate] |  |  |  |  |  |  | 6.99

Row | SMILES | % Inhibition (KDR(VEGFR2); [1]) [%] | Mean % Inhibition (KDR(VEGFR2)) [%] | % Inhibition (KDR(VEGFR2); [2]) [%] | % Inhibition (FGFR1; [1]) [%] | Mean % Inhibition (FGFR1) [%] | % Inhibition (FGFR1; [2]) [%] | cytotoxicity (in vitro) [%]
19 | CC1(C)CC(Nc2ccc(Nc3ccccc3)cc2)CC(C)(C)N1 [Compound 48, 4-N-phenyl-1-N-(2,2,6,6-tetramethylpiperidin-4-yl)benzene-1,4-diamine] |  |  |  |  |  |  | 7.01
20 | CSC(=[SH+])[N-]N=C(c1ccccn1)c1ccccn1.[Cu][Br] [compound 321206] | 52 | 49 | 45 | 5 | 5 | 5 | 
21 | COc1ccc(-c2csc3c2-n2cccc2C3=O)cc1 [compound 676693] | 1 | 5 | 8 | 4 | 3 | 3 | 
22 | Cc1ccc(S(=O)(=O)OCC(=O)O)cc1 [compound 16555] | 11 | 11 | 11 | 3 | 3 | 3 | 
23 | Cc1cc(O)c(-c2cc(O)c(C)cc2O)cc1O [compound 2805] | 42 | 47 | 52 | 1 | 6 | 10 | 
24 | O=C(O)c1c(Br)c(Br)c(Br)c(Br)c1C1c2ccc(O)cc2Oc2cc(O)ccc21 [compound 119889] | 103 | 103 | 104 | 96 | 96 | 95 | 
25 | Nc1cc[c]([Hg])cc1.Nc1nc2c(ncn2C2OC(CO)C(O)C2O)c(=[SH+])[nH]1 (stereo not drawn) [compound 321237] | 105 | 105 | 104 | 7 | 6 | 5 | 
26 | O=[As](O)(O)c1ccc(Cc2ccc([As](=O)(O)O)cc2)cc1 [compound 48300] | 76 | 77 | 78 | 8 | 9 | 10 | 
27 | COc1ccc(NCc2c(O)ccc3ccccc23)cc1 [compound 47924] | 21 | 19 | 18 | 1 | 2 | 3 | 
28 | CC(C)(C)c1c2c(c(C(C)(C)C)c3c1OCN(Cc1ccccc1)C3)OCN(Cc1ccccc1)C2 [compound 48458] | 13 | 11 | 9 | 5 | 6 | 8 | 
29 | O=C(c1no[n+]([O-])c1C(=O)c1csc2ccccc12)c1csc2ccccc12 [compound 18877] | 10 | 7 | 4 | −3 | −2 | 0 | 
30 | OC(c1cc(-c2ccccc2)nc2c1ccc1ccccc12)C1CCCCN1 (stereo not drawn) [compound 13480] | 4 | 3 | 2 | 5 | 8 | 10 | 
31 | C1=Cc2ccccc2C1.C=C(C)c1ccccc1.[N-]=[N+]=Nc1ccccc1 [compound 122351] | 4 | 4 | 4 | −1 | 1 | 4 | 
32 | NC(=O)SCC(=O)Nc1ccc2ncccc2c1 [compound 36738] | 16 | 16 | 17 | −1 | 1 | 4 | 
33 | CC(C)(O)/C=C/C(=O)C(C)(O)C1C(O)CC2(C)C3CC=C4C(C=C(O)C(=O)C4(C)C)C3(C)C(=O)CC12C (stereo not drawn) [compound 521777] | 10 | 9 | 8 | 1 | 1 | 0 | 
34 | CSC(=[SH+])[N-]N=Cc1cccc(C)n1.CSC(=[SH+])[N-]N=Cc1cccc(C)n1.[Cu] [compound 310551] | 21 | 20 | 18 | −5 | −3 | −1 | 
35 | CC1(C)CC(Nc2ccc(Nc3ccccc3)cc2)CC(C)(C)N1 [compound 632536] | 15 | 16 | 16 | 1 | 4 | 7 | 
